SMILES strings stand for the structures.

The EC90 is the concentration at which the effect reaches the 90% level. Read a low EC90 as an effect from little substance. The term CC50 denotes the concentration giving 50% cytotoxicity. Read a high CC50 as lower toxicity to the cells.

Data set [1] has as its system 229E-GFP. In words: microbe, parasite or virus in culture. The data set is classed as cell-based, human coronavirus. The following applies: for EC90 / EC50: 72 h; for EC50: read-out: ECso; for infection by 229E-GFP: result in words, micromolar concentrations.
A short description of data set [2]: in vitro. The settings on record: human, huh7-lunet#3 cells.
Data set [3] has as its system SARS-CoV-2. In words: SARS-CoV-2 cell monolayer protection assay. The following applies: Severe acute respiratory syndrome coronavirus 2, Vero C1008, 72 h; for EC100: read-out: concentration protecting completely / around 100% of the cell monolayer. Format: cell-based, SARS-CoV-2 strain NL/2020.
The subject of data set [4] is SARS-CoV-2. Format: cell-based, SARS-CoV-2 strain NL/2020.
Data set [5] has as its system SARS-CoV-2. As to the kind of experiment: Intracellular viral RNA quantitation (RT-qPCR), with time of addition. Format: cell-based, SARS-CoV-2 strain NL/2020. (Real-time PCR tracks product formation cycle by cycle.)
Data set [6] relates to retroviral vectors pseudotyped with SARS-CoV-2 Spike protein (SARS2pp). As to the kind of experiment: microbe, parasite or virus in culture. Format: cell-based. The settings on record: Severe acute respiratory syndrome coronavirus 2, Vero C1008, 48 h.
In data set [7] the test system is Vero-E6 cells. The following applies: uninfected Vero-E6 cells, 200 to 3.125 µM, crystal violet.

Turning to `CC[C@H]1OC(=O)[C@H](C)[C@@H](O[C@H]2C[C@@](C)(OC)[C@@H](O)[C@H](C)O2)[C@H](C)[C@@H](O[C@@H]2O[C@H](C)C[C@H](N(C)C)[C@H]2O)[C@](C)(O)C[C@@H](C)C(=O)[C@H](C)[C@@H](O)[C@]1(C)O` [Erithromycin, Erythromycin], in data set [1], the EC90 was > 50 µM, the EC50 was > 50 µM and the “infection by 229E-GFP” value is reported as “not significantly affected”. Besides, the half-maximal cytotoxic concentration (CC50) at 72 h in data set [2] was > 50 µM.

Consider `CO/N=C(\C(=O)N[C@@H]1C(=O)N2C(C(=O)O)=C(COC(N)=O)CS[C@H]12)c1ccco1` [Cefuroxime], for which, in data set [1], the 90% effect concentration (EC90) was > 50 µM, the EC50 was > 50 µM and the “infection by 229E-GFP” value is recorded as “not significantly affected”. Further, in data set [2], the CC50 at 72 h is > 50 µM.

For `CC[C@H]1OC(=O)[C@H](C)[C@@H](O[C@H]2C[C@@](C)(OC)[C@@H](O)[C@H](C)O2)[C@H](C)[C@@H](O[C@@H]2O[C@H](C)C[C@H](N(C)C)[C@H]2O)[C@](C)(OC)C[C@@H](C)C(=O)[C@H](C)[C@@H](O)[C@]1(C)O` [Clarithromycin], in data set [1], the EC90 worked out at 46.3 ± 4.8 µM, the EC50 turned out to be 17.3 ± 9.2 µM and the “infection by 229E-GFP” value was “blocked viral infection”. In data set [3], the EC50 was 60 µM and the EC100 was 100 µM. The “progeny virus production (TCID50)” value in data set [4] is “undetectable levels”. Further, the “viral RNA accumulation” value in data set [5] was “significantly reduced viral RNA accumulation in a dose dependent manner”. For the same compound, the EC50 in data set [6] is ~30 µM. Further, in data set [2], the cytotoxic concentration (CC50) at 72 h was > 50 µM.

For `CC[C@H]1OC(=O)[C@H](C)[C@@H](O[C@H]2C[C@@](C)(OC)[C@@H](O)[C@H](C)O2)[C@H](C)[C@@H](O[C@@H]2O[C@H](C)C[C@H](N(C)C)[C@H]2O)[C@](C)(O)C[C@@H](C)/C(=N\OC)[C@H](C)[C@@H](O)[C@]1(C)O` [Lexithromycin], in data set [1], it took 16.3 ± 6 µM to reach the 90% level (EC90), the EC50 amounted to 3 ± 1.4 µM and the “infection by 229E-GFP” value is “blocked viral infection”. In data set [3], the EC50 turned out to be 25 µM and the EC100 came to 50 µM. The “progeny virus production (TCID50)” value in data set [4] was “undetectable levels”. Moreover, in data set [5], the “viral RNA accumulation” value is “significantly reduced viral RNA accumulation in a dose dependent manner”. Moreover, in data set [6], the EC50 was ~18 µM. In addition, the “cytotoxicity in Vero-E6 cells” value in data set [7] is given as “the most toxic compound”. Besides, the cytotoxic concentration (CC50) at 72 h in data set [2] is > 50 µM.

On to `CC[C@H]1OC(=O)[C@H](C)[C@@H](O[C@H]2C[C@@](C)(OC)[C@@H](O)[C@H](C)O2)[C@H](C)[C@@H](O[C@@H]2O[C@H](C)C[C@H](N(C)C)[C@H]2O)[C@](C)(O)C[C@@H](C)CN(C)[C@H](C)[C@@H](O)[C@]1(C)O` [Azithromycin], for which, in data set [1], the 90% effect level (EC90) was put at 18.8 ± 2.5 µM, the EC50 came out at 6.1 ± 2.4 µM and the “infection by 229E-GFP” value is “blocked viral infection”. In addition, in data set [3], the EC50 was determined as 75 µM and the EC100 turned out to be 200 µM. Besides, the “progeny virus production (TCID50)” value in data set [4] is listed as “undetectable levels”. For the same compound, the “viral RNA accumulation” value in data set [5] is reported as “significantly reduced viral RNA accumulation in a dose dependent manner”. Moreover, the EC50 in data set [6] was ~30 µM. In data set [7], the “cytotoxicity in Vero-E6 cells” value is “not toxic at any of the tested concentrations”. In addition, in data set [2], the CC50 at 72 h is > 50 µM.

The record behind these values is EP3932409A1 (priority 2020, dated 2022).
